Reference: US11098077B2, “Locked nucleic acid cyclic dinucleotide compounds and uses thereof” (CHINOOK THERAPEUTICS, INC., priority 2016, dated 2021)
pEC50: −log10 of the molar value.

Experiments:
hSTING WT = target: T1, hSTING WT (Homo sapiens, UniProt Q86WV6, H232R); test: Differential scanning fluorometry (DSF) binding to purified STING AA140-379, wild type; conditions: for hSTING Tm Shift WT: DSF, ligand 1 mM, 1 mg/ml STING AA140-379
T1 construct: DNA encoding amino acids 140-379 (amino acid numbering corresponding to Swiss Prot Q86WV6); 6xHIS (N, cleaved yes); SUMO (N, cleaved yes); made in house; host or cells: Rosetta2 (DE3) E. coli
Method: (§1) Cells were grown in lysogeny broth at 37° C. until a […] absorbance of 0.6 was reached. […] Cell pellets were re-suspended on ice in a buffer containing 50 mM Tris hydrochloride (Tris-HCl) pH 7.5, 500 mM sodium chloride (NaCl), 20 mM imidazole, 10% glycerol, 1 mM tris(2-carboxyethyl)phosphine hydrochloride (TCEP) and protease inhibitor tablet (Pierce) (Buffer A). Cells were lysed using an S-450D sonifier (Emmerson industrial) on ice. […] Protein was aliquoted, flash frozen in liquid nitrogen and stored at −80° C. until use.
(§2) The protein is heated in the presence of a dye that binds to and fluoresces in hydrophobic environments. The protein is thermally denatured by heating resulting in increased dye binding to the unfolded protein and fluorescence. The temperature midpoint (Tm) of a proteins denaturation is established by calculating the half maximal value of the denaturation curve. The temperature midpoint of the protein in the presence of a ligand is directly related to the affinity of the ligand for the protein and therefore its ability to stabilize the protein at higher temperatures.
(§3) Each of wild type hSTING, HAQ allele hSTING and REF allele hSTING were used with each of the reference compounds and compounds of the invention as listed in Table 4. Samples were placed in hard shell PCR plate (Bio-Rad). The fluorescence as a function of temperature was recorded in a CFX 96 real time PCR machine (Bio-Rad) reading on the HEX channel, excitation 450-490, emission 560-580 nm. The temperature gradient was from 15-80° C. ramping 0.5° C. per 15 seconds and recording every 0.5° C. After subtraction of the background signal from a sample lacking protein and ligand. The midpoint temperature (Tm) was calculated by fitting the curves of the fluorescence as a function of temperature to a Boltzmann sigmoidal function (Graph Pad Prism).

hSTING HAQ allele = target: T2, hSTING HAQ allele (Homo sapiens, UniProt Q86WV6, G230A/H232R/R293Q); test: Differential scanning fluorometry (DSF) binding to purified STING AA140-379, HAQ allele; conditions: ligand 1 mM, 1 mg/ml STING AA140-379
T2 construct: DNA encoding amino acids 140-379 (amino acid numbering corresponding to Swiss Prot Q86WV6); 6xHIS (N, cleaved yes); SUMO (N, cleaved yes); made in house; host or cells: Rosetta2 (DE3) E. coli
Method: as §1, §2, §3

hSTING REF allele = target: T3, hSTING REF allele (Homo sapiens, UniProt Q86WV6); test: Differential scanning fluorometry (DSF) binding to purified STING AA140-379, REF allele; conditions: for hSTING Tm Shift REF: DSF, ligand 1 mM, 1 mg/ml STING AA140-379
T3 construct: DNA encoding amino acids 140-379 (amino acid numbering corresponding to Swiss Prot Q86WV6); 6xHIS (N, cleaved yes); SUMO (N, cleaved yes); made in house; host or cells: Rosetta2 (DE3) E. coli
Method: as §1, §2, §3

[1] = target: T4, hSTING HAQ allele in THP1-Dual cells (Homo sapiens, UniProt Q86WV6, G230A/H232R/R293Q/R71H); test: THP1-Dual IRF-3 inducible secreted luciferase reporter assay (type I interferon activation), without digitonin; type: cell-based
T4 construct: a human monocyte cell line containing the hSTING HAQ allele; host or cells: THP1-Dual cells
Method: After 30 minutes, cells were washed and fresh RPMI media containing 10% FBS was added, and cells were incubated at 37° C. with 5% CO2 Cell culture supernatants from each sample were collected after overnight incubation, and 10 μL of the cell culture supernatants was added to 50 μL QUANTI-Luc reagent (Invivogen). Type I interferon activation was determined by measuring secreted luciferase levels on a SpectraMax M3 spectrophotometer (Molecular Devices).

[2] = system: B16.SIY melanoma tumor cells; test: B16.SIY melanoma tumor model, intra-tumoral injection (Example 13); type: in vivo, C57BL/6 mice; conditions: for tumor efficacy compared to reference compound 2′3′-RR-(A)(A): 1 μg dose; for tumor inhibition (tumor volume) compared to HBSS: single IT injection, 0.1, 1, 10 and 100 μg
Method: (§4) Tumors were measured twice weekly.

[3] = system: SIY-specific T cells in splenocytes; test: IFNγ ELISPOT of splenocytes stimulated with SIY peptide; type: in vivo, C57BL/6 mice; conditions: day 7 post IT injection; for IFNγ ELISPOT T cell responses compared to reference compound 2′3′-RR-(A)(A): 1 μg dose
[4] = system: serum TNF-α, IFN-γ, IL-6, MCP-1; test: Systemic serum pro-inflammatory cytokines by Mouse Inflammation Cytometric Bead Array; conditions: from serum cytokines six hours post-IT injection
Method: (§5) To assess the ability of the LNA-CDN molecules to promote anti-tumor immunity in aggressive murine tumor models, 6-8 week old female C57BL/6 mice (8 mice per group) were implanted with B16.SIY melanoma tumor cells (1×10^6 cells in 100 μL PBS). […] Treatments began when tumors reached a volume of approximately 100 mm^3, on day 9 post tumor implantation. The compounds were administered by a single subcutaneous injection into the center of the tumor (IT) using a 27 gauge needle. Tumors were measured twice weekly.

[5] = system: SIY-specific CD8+ T cells in splenocytes; test: FACS of splenocytes with SIY pentamer (SIY+ CD8+ T cells); type: in vivo, C57BL/6 mice; conditions: day 7 post IT injection
Method: as §4
Data analysis was conducted with FlowJo software (Tree Star).

[6] = system: serum TNF-α, IFN-γ, IL-6, MCP-1; conditions: mouse, in vivo
Method: as §5

B16.SIY melanoma cells [7] = test: B16.SIY melanoma tumor model in WT mice (Example 14); type: in vivo, C57BL/6 (WT) mice; conditions: single IT injection, 100 μg
Method: as §4

B16.SIY melanoma cells [8] = test: B16.SIY melanoma tumor model in STING-deficient Goldenticket mice (Example 14); type: in vivo; conditions: STING-deficient GT mice; single IT injection, 100 μg
Method: as §4

[9] = for all three alleles (WT, HAQ, REF)

T4 sequence (Q86WV6 whole entry R71H/G230A/H232R/R293Q): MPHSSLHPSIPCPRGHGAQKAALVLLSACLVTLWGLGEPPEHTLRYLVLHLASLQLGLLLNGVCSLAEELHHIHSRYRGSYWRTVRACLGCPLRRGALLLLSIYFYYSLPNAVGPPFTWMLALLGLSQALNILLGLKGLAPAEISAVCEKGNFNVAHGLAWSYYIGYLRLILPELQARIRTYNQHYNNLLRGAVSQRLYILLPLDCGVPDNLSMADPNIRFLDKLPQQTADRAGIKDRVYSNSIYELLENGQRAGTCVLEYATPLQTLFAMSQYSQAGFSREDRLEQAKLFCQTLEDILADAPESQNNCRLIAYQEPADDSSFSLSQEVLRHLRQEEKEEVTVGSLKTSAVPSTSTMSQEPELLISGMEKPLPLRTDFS
T2 sequence (Q86WV6 140-379 G230A/H232R/R293Q limits assumed): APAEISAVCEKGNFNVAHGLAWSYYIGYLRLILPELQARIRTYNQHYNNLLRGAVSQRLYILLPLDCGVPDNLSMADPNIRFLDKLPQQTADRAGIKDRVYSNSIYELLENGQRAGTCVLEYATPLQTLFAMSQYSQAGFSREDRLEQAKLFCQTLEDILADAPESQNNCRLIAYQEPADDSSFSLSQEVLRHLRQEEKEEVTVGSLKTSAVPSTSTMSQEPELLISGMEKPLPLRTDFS
T1 sequence (Q86WV6 140-379 H232R limits assumed): as the sequence (Q86WV6 140-379 G230A/H232R/R293Q limits assumed) above, with A91G, Q154R counted along it
T3 sequence (Q86WV6 140-379): as the sequence (Q86WV6 140-379 G230A/H232R/R293Q limits assumed) above, with A91G, R93H, Q154R counted along it

SMILES	hSTING Tm Shift WT (hSTING WT) [°C]	Tm shift compared with natural ligand 2′3′-(G)(A) (hSTING WT; [9])	Tm shift compared with reference compound 2′3′-RR-(A)(A) (hSTING WT; [9])	hSTING Tm Shift HAQ (hSTING HAQ allele) [°C]	hSTING Tm Shift REF (hSTING REF allele) [°C]	Tm shift compared with 2′3′-RR-(A)(A) and 2′3′-(G)(A) (hSTING REF allele; for the REF allele)	pEC50 [1]	tumor efficacy compared to reference compound 2′3′-RR-(A)(A) ([2]; single IT injection)	tumor regression ([2]; single IT injection, 100 μg dose)	tumor inhibition (tumor volume) compared to HBSS [2]	IFNγ ELISPOT T cell responses compared to reference compound 2′3′-RR-(A)(A) [3]	T cell production of IFNγ in response to SIY peptide stimulation, compared to HBSS ([3]; 0.1, 1 and 10 μg doses)	safety profile compared to reference compound 2′3′-RR-(A)(A) [4]	IFNγ ELISPOT responses compared to HBSS ([3]; all doses tested (0.1, 1, 10, 100 μg))	range of efficacy (doses giving IFNγ ELISPOT response) [3]	range of dose responses (therapeutic window for anti-tumor immunity) [5]	systemic cytokines compared with 2′3′-RR-(A)(A) [6]	tumor rejection (tumor volume) compared to HBSS (B16.SIY melanoma cells [7])	anti-tumor effect (tumor volume) (B16.SIY melanoma cells [8])
Nc1ncnc2c1ncn2[C@@H]1O[C@@]23CO[C@@H]1[C@@H]2O[P@](=O)(S)OC[C@@]12CO[C@@H]([C@H](n4cnc5c(N)ncnc54)O1)[C@@H]2O[P@](=O)(S)OC3 [Compound 5a]	16.8	greater Tm shift than the natural ligand 2′3′-(G)(A)	comparable to or greater than that of the reference compound 2′3′-RR-(A)(A)	27.6	10.6	greater Tm shift than both 2′3′-RR-(A)(A) and 2′3′-(G)(A)	4.38	comparable tumor efficacy as compared to the reference compound 2′3′-RR-(A)(A)	complete tumor regression	potent tumor inhibition as compared to HBSS, in a dose-dependent manner	comparable T cell responses	significantly higher T cell production of IFNγ	comparable safety profile	–	–	–	–	–	–
Nc1ncnc2c1ncn2[C@@H]1O[C@@H]2CO[P@@](=O)(S)O[C@H]3[C@H]4OC[C@]3(CO[P@](=O)(S)O[C@@H]1[C@@H]2O)O[C@H]4n1cnc2c(N)ncnc21 [Compound 10c]	6.5	–	–	10.4	5.0	–	< 3.82	comparable tumor efficacy as compared to the reference compound 2′3′-RR-(A)(A)	–	potent tumor inhibition as compared to HBSS, in a dose-dependent manner	comparable responses	–	superior safety profile	significantly higher responses	an even broader range of efficacy than Compound 5a	a broader range of dose responses	significantly lower systemic cytokines than 2′3′-RR-(A)(A)	–	–
Nc1nc2c(ncn2[C@@H]2O[C@@H]3CO[P@@](=O)(S)O[C@H]4[C@H]5OC[C@]4(CO[P@](=O)(S)O[C@@H]2[C@@H]3F)O[C@H]5n2cnc3c(N)ncnc32)c(=O)[nH]1 [Compound 15c, 2′3′-SR-(3′F-G)(2′O,4′C-LNA-A)]	–	–	–	–	–	–	–	–	–	–	–	–	–	–	–	–	–	complete tumor rejection	no anti-tumor effect
Nc1nc2c(ncn2[C@@H]2O[C@@H]3CO[P@](=O)(S)O[C@H]4[C@H]5OC[C@]4(CO[P@@](=O)(S)O[C@H]3[C@H]2O)O[C@H]5n2cnc3c(N)ncnc32)c(=O)[nH]1 [Compound 45b, 2-amino-9-((2R,3R,3aS,5S,7aR,9R,10R,10aS,12R,14aR)-2-(6-amino-9H-purin-9-yl)-10-hydroxy-5,12-dimercapto-5,12-dioxidohexahydro-2H,7H,14H-3,14a-(epoxymethano)difuro[3,2-d:3′,2′-j][1,3,7,9]tetraoxa[2,8]diphosphacyclododecin-9-yl)-1,9-dihydro-6H-purin-6-one]	9.4	–	–	14.7	7.4	–	4.22	–	–	–	–	–	–	–	–	–	–	–	–
